The source of these data is patent US10647743B2, “Method of making biologically active alpha-beta peptides” (priority 2008, dated 2020).

One data set addresses proteinase K (Parengyodontium album, UniProt P06873). In words: proteinase K stability of Puma BH3 peptides.
The target of data set [1] is T1, Bcl-xL (Homo sapiens, UniProt Q07817). In words: competition FP with fluorescently labeled Bak-BH3 peptide, Bcl-xL. Format: binding.
Another data set concerns the target Mcl-1 (Homo sapiens, UniProt Q07820). In words: direct-binding FP of BODIPY-TMR labeled analogs, Mcl-1. The conditions noted are these: Table 5, BODIPY-labeled analogues.
The target in data set [2] is T1, Bcl-xL. Briefly: biochemical.
The subject of a further data set is HIV-1 NL4-3. The conditions noted are these: read-out: Inhibition of HIV-1 infectivity, IC50 (nM), X4 strains, NL4-3; TZM-bl cells; mean ± S.E.M., three experiments.
In another data set the test system is HIV-1 HC4. The conditions noted are these: read-out: Inhibition of HIV-1 infectivity, IC50 (nM), X4 strains, HC4; TZM-bl cells; mean ± S.E.M., three experiments.
The test system of the next data set is HIV-1 CC 1/85. The conditions noted are these: read-out: Inhibition of HIV-1 infectivity, IC50 (nM), R5 strains, CC 1/85; TZM-bl cells; mean ± S.E.M., three experiments.
The next data set deals with HIV-1 DJ258. The conditions noted are these: read-out: Inhibition of HIV-1 infectivity, IC50 (nM), R5 strains, DJ258; TZM-bl cells; mean ± S.E.M., three experiments.
Another data set deals with HIV. The conditions noted are these: background; read-out: anti-HIV IC50 in cell-based assays; cited from earlier work.

T1 sequence (Q07817 whole entry, species assumed): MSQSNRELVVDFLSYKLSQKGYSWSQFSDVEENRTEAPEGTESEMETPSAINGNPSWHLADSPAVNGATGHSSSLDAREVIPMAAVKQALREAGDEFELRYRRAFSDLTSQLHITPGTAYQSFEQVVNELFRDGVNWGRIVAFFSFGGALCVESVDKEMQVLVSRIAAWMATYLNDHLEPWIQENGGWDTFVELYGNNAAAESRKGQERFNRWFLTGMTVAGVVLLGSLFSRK
Chain of proteinase K (P06873 106-384): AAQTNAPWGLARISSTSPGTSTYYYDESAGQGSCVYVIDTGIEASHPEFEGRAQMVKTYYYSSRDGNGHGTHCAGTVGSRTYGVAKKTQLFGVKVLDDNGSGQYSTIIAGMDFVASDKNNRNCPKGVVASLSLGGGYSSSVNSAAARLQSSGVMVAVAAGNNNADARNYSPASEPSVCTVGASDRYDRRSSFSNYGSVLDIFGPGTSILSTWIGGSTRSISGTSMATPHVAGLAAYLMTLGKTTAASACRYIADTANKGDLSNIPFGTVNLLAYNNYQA
Chain of Mcl-1 (Q07820 whole entry, species assumed): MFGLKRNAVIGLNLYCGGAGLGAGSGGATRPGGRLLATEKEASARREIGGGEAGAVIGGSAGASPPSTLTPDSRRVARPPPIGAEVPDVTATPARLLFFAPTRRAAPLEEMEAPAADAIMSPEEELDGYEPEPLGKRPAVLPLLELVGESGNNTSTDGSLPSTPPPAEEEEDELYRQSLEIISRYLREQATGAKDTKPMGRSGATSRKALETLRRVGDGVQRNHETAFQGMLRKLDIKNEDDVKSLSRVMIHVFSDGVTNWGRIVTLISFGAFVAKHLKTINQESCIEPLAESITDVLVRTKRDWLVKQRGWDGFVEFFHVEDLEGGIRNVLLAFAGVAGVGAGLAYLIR

Take `CC[C@H](C)[C@H](NC(=O)C[C@H](CCC(=O)O)NC(=O)[C@H](CCCNC(=N)N)NC(=O)[C@H](C)NC(=O)[C@H](Cc1c[nH]c2ccccc12)NC(=O)C[C@H](CCC(N)=O)NC(=O)[C@H](CCC(=O)O)NC(=O)[C@H](CCC(=O)O)NC(C)=O)C(=O)NCC(=O)N[C@@H](C)CC(=O)N[C@@H](CCC(N)=O)C(=O)N[C@@H](CC(C)C)C(=O)N[C@@H](CCCNC(=N)N)C(=O)N[C@@H](CCCNC(=N)N)CC(=O)N[C@@H](CCSC)C(=O)N[C@@H](C)C(=O)N[C@@H](CC(=O)O)CC(=O)N[C@@H](CC(=O)O)C(=O)N[C@@H](CC(C)C)C(=O)N[C@@H](CC(N)=O)C(=O)N[C@@H](C)CC(=O)N[C@@H](CCC(N)=O)C(=O)N[C@@H](Cc1ccc(O)cc1)C(=O)N[C@@H](CCC(=O)O)CC(=O)N[C@@H](CCCNC(=N)N)C(=O)N[C@@H](CCCNC(=N)N)C(N)=O` [3′]: the half-life (usually how long it takes for the measured level to halve) at 50 μm worked out at 0.0583 h in “in vitro” and 2.83 h at proteinase K.

For `CC[C@H](C)[C@H](NC(=O)[C@H](CCC(=O)O)NC(=O)C[C@H](CCCNC(=N)N)NC(=O)[C@H](C)NC(=O)[C@H](Cc1c[nH]c2ccccc12)NC(=O)C[C@H](CCC(N)=O)NC(=O)[C@H](CCC(=O)O)NC(=O)[C@H](CCC(=O)O)NC(C)=O)C(=O)NCC(=O)N[C@@H](C)CC(=O)N[C@@H](CCC(N)=O)C(=O)N[C@@H](CC(C)C)C(=O)N[C@@H](CCCNC(=N)N)CC(=O)N[C@@H](CCCNC(=N)N)C(=O)N[C@@H](CCSC)C(=O)N[C@@H](C)C(=O)N[C@@H](CC(=O)O)CC(=O)N[C@@H](CC(=O)O)C(=O)N[C@@H](CC(C)C)C(=O)N[C@@H](CC(N)=O)CC(=O)N[C@@H](C)C(=O)N[C@@H](CCC(N)=O)C(=O)N[C@@H](Cc1ccc(O)cc1)C(=O)N[C@@H](CCC(=O)O)CC(=O)N[C@@H](CCCNC(=N)N)C(=O)N[C@@H](CCCNC(=N)N)C(N)=O` [2′], the Ki (in general, the dissociation constant of the complex between target and ligand, obtained from inhibition or displacement) at Bcl-xL [1] is under 1 nM. Also, the equilibrium dissociation constant (Kd) – broadly, the concentration at which binding is half-saturated – came to 110 nM on Mcl-1 and 2.2 nM at Bcl-xL [2]. Besides, the half-life at 50 μm is 1.67 h in the data set “in vitro” and over 50 h on proteinase K.

For the compound enfuvirtide, the IC50 with HIV-1 NL4-3 is 700 ± 100 nM; in the data set on HIV-1 HC4, 250 ± 20 nM; in the data set on HIV-1 CC 1/85, 1400 ± 400 nM; with HIV-1 DJ258 it was 330 ± 60 nM; with HIV it was about 1 nM.
